Results taken from patent US20080096848A1, “Substituted N-Aryl-9-Oxo-9H-Fluorene-1-Carboxamides and Analogs as Activators of Caspases and Inducers of Apoptosis” (CYTOVIA INC., priority 2004, published 2008).
Read-outs that look alike come from different tables or passages of the source.

Tested on: T-47D
Assay: Caspase cascade activation assay (Ac-DEVD-R110 fluorogenic substrate) in T-47D cells
Type: cell-based, Human
Conditions: 24 h incubation; for Caspase activity (Ratio): ratio of net RFU (T=3 h) of test compound to control, 0.16 to 10 μM final; for EC50: sigmoidal dose-response, read-out: Caspase potency EC50
Description: Human breast cancer cell lines T-47D was grown according to media component mixtures designated by American Type Culture Collection+10% FCS (Invitrogen Corporation), in a 5% CO2-95% humidity incubator at 37° C. T-47D and ZR-75-1 cells were maintained at a cell density between 30 and 80% confluency and for HL-60 at a cell density of 0.1 to 0.6×10^6 cells/mL. Cells were harvested at 600×g and resuspended at 0.65×10^6 cells/mL into appropriate media+10% FCS. An aliquot of 45 μL of cells was added to a well of a 96-well microtiter plate containing 5 μL of a 10% DMSO in RPMI-1640 media solution containing 1.6 to 100 μM of N-(2-methylphenyl)-9-oxo-9H-fluorene-1-carboxamide or other test compound (0.16 to 10 μM final). An aliquot of 45 μL of cells was added to a well of a 96-well microtiter plate containing 5 μL of a 10% DMSO in RPMI-1640 media solution without test compound as the control sample. The samples were mixed by agitation and then incubated at 37° C. for 24 h in a 5% CO2-95% humidity incubator. After incubation, the samples were removed from the incubator and 50 μL of a solution containing 20 μM of N—(Ac-DEVD)-N′-ethoxycarbonyl-R110 fluorogenic substrate (SEQ ID NO:1) (Cytovia, Inc.; U.S. Pat. No. 6,335,429), 20% sucrose (Sigma), 20 mM DTT (Sigma), 200 mM NaCl (Sigma), 40 mM Na PIPES buffer pH 7.2 (Sigma), and 500 μg/mL lysolecithin (Calbiochem) was added. The samples were mixed by agitation and incubated at room temperature. Using a fluorescent plate reader (Model 1420 Wallac Instruments), an initial reading (T=0) was made about 1-2 min after addition of the substrate solution, employing excitation at 485 nm and emission at 530 nm, to determine the background fluorescence of the control sample. After about 3 h of incubation, the samples were read for fluorescence as above (T=3 h).
The Relative Fluorescence Unit values (RFU) were used to calculate the sample readings as follows: RFU(T=3h)−Control RFU(T=0)=Net RFU(T=3h)
The activity of caspase cascade activation was determined by the ratio of the net RFU value for N-(2-methylphenyl)-9-oxo-9H-fluorene-1-carboxamide and other test compounds to that of control samples. The EC50 (nM) was determined by a sigmoidal dose-response calculation (Prism 2.0, GraphPad Software Inc.).

EC50 (Homo sapiens, T47D, 24 h)	EC50	EC50 (Hydrochloride)	SMILES	Caspase activity (Ratio)
> 10 µM			Cc1cccc(C)c1NC(=O)c1cccc2c1C(=O)c1ccccc1-2 [Example 7, N-(2,6-Dimethylphenyl)-9-oxo-9H-fluorene-1-carboxamide]	1.4
> 10 µM			O=C(Nc1ccccc1-n1ccnc1)c1cccc2c1C(=O)c1ccccc1-2 [Example 4, N-(2-(1H-Imidazol-1-yl)-phenyl)-9-oxo-9H-fluorene-1-carboxamide]	1.4
2.51 µM			O=C(Nc1ccccc1[N+](=O)[O-])c1cccc2c1C(=O)c1ccccc1-2 [Example 25, N-(2-Nitrophenyl)-9-oxo-9H-fluorene-1-carboxamide]	2.2
5.67 µM			O=C(Nc1ccccc1N1CCOCC1)c1cccc2c1C(=O)c1ccccc1-2 [Example 1, N-(2-Morpholinophenyl)-9-oxo-9H-fluorene-1-carboxamide]	3.1
	2.23 µM		O=C(Nc1ccccc1-n1cccc1)c1cccc2c1C(=O)c1ccccc1-2 [Example 2, N-(2-(1H-Pyrrolo-1-yl)-phenyl)-9-oxo-9H-fluorene-1-carboxamide]	4.2
> 10 µM			O=C(Nc1ccccc1)c1cccc2c1C(=O)c1ccccc1-2 [Example 6, 9-Oxo-N-phenyl-9H-fluorene-1-carboxamide]	1.9
	6 µM		O=C(Nc1cccc2ccccc12)c1cccc2c1C(=O)c1ccccc1-2 [N-(1-Naphthalen-1-yl)-9-oxo-9H-fluorene-1-carboxamide]	3.2
0.881 µM			Nc1ccc2c(c1)C(=O)c1c(C(=O)Nc3ccccc3-n3cccn3)cccc1-2 [Example 30, 7-Amino-N-(2-(1H-pyrazol-1-yl)phenyl)-9-oxo-9H-fluorene-1-carboxamide]	4.4
0.419 µM			COC(=O)c1ccccc1NC(=O)c1cccc2c1C(=O)c1ccccc1-2 [N-(2-(Methoxycarbonyl)phenyl)-9-oxo-9H-fluorene-1-carboxamide]	7.1
> 10 µM			Cc1ccncc1NC(=O)c1cccc2c1C(=O)c1ccccc1-2 [Example 21, N-(4-Methylpyridin-3-yl)-9-oxo-9H-fluorene-1-carboxamide]	0.8
3.52 µM			O=C(Nc1ccccc1Br)c1cccc2c1C(=O)c1ccccc1-2 [N-(2-Bromophenyl)-9-oxo-9H-fluorene-1-carboxamide]	9.1
2.07 µM			CCOc1ccccc1NC(=O)c1cccc2c1C(=O)c1ccccc1-2 [N-(2-Ethoxyphenyl)-9-oxo-9H-fluorene-1-carboxamide]	8.2
> 10 µM			O=C(Nc1ccccc1-n1cccn1)c1cccc2oc3ccccc3c12 [Example 23, N-(2-(1H-pyrazol-1-yl)phenyl)-dibenzofuran-1-carboxamide]	1.1
1.96 µM			O=C(Nc1ccccc1F)c1cccc2c1C(=O)c1ccccc1-2 [N-(2-Fluorophenyl)-9-oxo-9H-fluorene-1-carboxamide]	5.7
2 µM			N#Cc1ccccc1NC(=O)c1cccc2c1C(=O)c1ccccc1-2 [N-(2-Cyanophenyl)-9-oxo-9H-fluorene-1-carboxamide]	2.3
	1.05 µM		O=C(Nc1ccccc1Cl)c1cccc2c1C(=O)c1ccccc1-2 [N-(2-Cholorophenyl)-9-oxo-9H-fluorene-1-carboxamide]	7.4
> 10 µM			Cc1cccc(NC(=O)c2cccc3c2C(=O)c2ccccc2-3)c1 [N-(3-Methylphenyl)-9-oxo-9H-fluorene-1-carboxamide]	1.3

EC50 (Homo sapiens, T47D, 24 h)	EC50	EC50 (Hydrochloride)	SMILES	Caspase activity (Ratio)
> 10 µM			CC1CCCCC1NC(=O)c1cccc2c1C(=O)c1ccccc1-2 (stereo not drawn) [Example 18, N-(2-Methylcyclohexyl)-9-oxo-9H-fluorene-1-carboxamide]	1.8
> 10 µM			CN1CCN(Cc2ccccc2NC(=O)c2cccc3c2C(=O)c2ccccc2-3)CC1 [Example 22, N-(2-(4-Methylpiperazin-1-yl-methyl)phenyl)-9-oxo-9H-fluorene-1-carboxamide]	1.0
> 10 µM			O=C(Nc1ccccn1)c1cccc2c1C(=O)c1ccccc1-2 [Example 5, 9-Oxo-N-(pyridin-2-yl)-9H-fluorene-1-carboxamide]	1.2
1.5 µM			O=C(Nc1ccccc1-c1ccccc1)c1cccc2c1C(=O)c1ccccc1-2 [N-(2-Phenylphenyl)-9-oxo-9H-fluorene-1-carboxamide]	8.1
		> 10 µM	CN(C)Cc1ccccc1NC(=O)c1cccc2c1C(=O)c1ccccc1-2.Cl [Example 24, N-(2-Dimethylaminomethyl-phenyl)-9-oxo-9H-fluorene-1-carboxamide Hydrochloride]	1.8
2.88 µM			O=C(Nc1ccccc1CBr)c1cccc2c1C(=O)c1ccccc1-2 [Example 14, N-(2-Bromomethylphenyl)-9-oxo-9H-fluorene-1-carboxamide]	5.7
> 10 µM			O=C(Nc1ccccc1-n1cccn1)c1cccc2c3c([nH]c12)CCCC3 [Example 16, N-(2-(1H-pyrazol-1-yl)phenyl)-6,7,8,9-tetrahydro-5H-carbazole-1-carboxamide]	0.8
3.7 µM			Cc1ccccc1NC(=O)c1cccc2c1C(O)c1ccccc1-2 (stereo not drawn) [Example 36, 9-Hydroxy-N-(2-methylphenyl)-9H-fluorene-1-carboxamide]	3.3
> 10 µM			Cc1ccccc1N(C)C(=O)c1cccc2c1C(=O)c1ccccc1-2 [Example 17, N-Methyl-N-(2-methylphenyl)-9-oxo-9H-fluorene-1-carboxamide]	1.4
> 10 µM			O=C(Nc1ccccc1-c1nnn[nH]1)c1cccc2c1C(=O)c1ccccc1-2 [Example 8, N-(2-(1H-tetrazol-5-yl)phenyl)-9-oxo-9H-fluorene-1-carboxamide]	1.1
> 10 µM			Cc1ccc(NC(=O)c2cccc3c2C(=O)c2ccccc2-3)cc1 [N-(4-Methylphenyl)-9-oxo-9H-fluorene-1-carboxamide]	1.4
> 10 µM			O=C(Nc1ccccc1-n1cccn1)c1cccc2sc3c(c12)C(=O)CC=C3 [Example 34, 9-Oxo-N-(2-(1H-pyrazol-1-yl)phenyl)-dibenzothiophene-1-carboxamide]	1.2
> 10 µM			Cc1cccnc1NC(=O)c1cccc2c1C(=O)c1ccccc1-2 [Example 11, N-(3-Methylpyridin-2-yl)-9-Oxo-9H-fluorene-1-carboxamide]	1.2
> 10 µM			O=C(Nc1ccccc1O)c1cccc2c1C(=O)c1ccccc1-2 [Example 35, N-(2-Hydroxy-phenyl)-9-oxo-9H-fluorene-1-carboxamide]	1.3
> 10 µM			COc1ccc(NC(=O)c2cccc3c2C(=O)c2ccccc2-3)cc1 [N-(4-Methoxyphenyl)-9-oxo-9H-fluorene-1-carboxamide]	1.8
1.92 µM			O=C(Nc1ccccc1N1CCCCC1)c1cccc2c1C(=O)c1ccccc1-2 [Example 3, 9-Oxo-N-(2-(piperidin-1-yl)-phenyl)-9H-fluorene-1-carboxamide]	7.4
0.688 µM			O=C(Nc1ccccc1OC(F)F)c1cccc2c1C(=O)c1ccccc1-2 [N-(2-Difluoromethoxyphenyl)-9-oxo-9H-fluorene-1-carboxamide]	5.9

SMILES	EC50 (Homo sapiens, T47D, 24 h)	EC50	EC50 (Hydrochloride)	Caspase activity (Ratio)
O=C(Nc1ccccc1-n1cccn1)c1ccc([N+](=O)[O-])c2c1C(=O)c1cc([N+](=O)[O-])ccc1-2 [Example 31, 4,7-Dinitro-N-(2-(1H-pyrazol-1-yl)phenyl)-9-oxo-9H-fluorene-1-carboxamide]	6.05 µM			2.3
O=C(Nc1ccccc1-n1cccn1)c1cccc2c1-c1ccccc1S2(=O)=O [Example 33, 9,9-Dioxo-N-(2-(1H-pyrazol-1-yl)phenyl)-dibenzothiophene-1-carboxamide]		> 10 µM		1.6
